# According to publication PMC3823594, “Conformational Changes Underlying Pore Dilation in the Cytoplasmic Domain of Mammalian Inward Rectifier K^+ Channels” (PLoS ONE, 2013):
# Numbering of substitutions follows the chain as printed.
# Key:
# Kir3.2 E236Q = target: T1, Kir3.2 E236Q (Mus musculus, UniProt P48542, E236Q); test: Two-electrode voltage clamp, ACh-dependent (m2R-dependent) K+ current activation; format: cell-based; details: Kir3.2 E236Q with porcine m2R in Xenopus oocytes; −120 mV; Hill equation fit
# T1 sequence (P48542 19-425 E236Q): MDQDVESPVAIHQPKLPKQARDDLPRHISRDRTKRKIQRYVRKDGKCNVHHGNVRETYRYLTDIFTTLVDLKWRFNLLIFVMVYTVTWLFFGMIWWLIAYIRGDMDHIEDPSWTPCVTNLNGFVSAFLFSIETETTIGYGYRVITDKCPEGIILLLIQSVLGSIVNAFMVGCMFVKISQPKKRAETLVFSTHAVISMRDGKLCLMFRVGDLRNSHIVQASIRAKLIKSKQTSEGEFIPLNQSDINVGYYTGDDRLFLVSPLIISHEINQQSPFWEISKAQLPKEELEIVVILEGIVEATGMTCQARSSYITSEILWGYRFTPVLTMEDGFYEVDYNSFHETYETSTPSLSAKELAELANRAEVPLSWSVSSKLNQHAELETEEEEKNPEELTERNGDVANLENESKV
# T1 sequence (P06199 1-466 partner): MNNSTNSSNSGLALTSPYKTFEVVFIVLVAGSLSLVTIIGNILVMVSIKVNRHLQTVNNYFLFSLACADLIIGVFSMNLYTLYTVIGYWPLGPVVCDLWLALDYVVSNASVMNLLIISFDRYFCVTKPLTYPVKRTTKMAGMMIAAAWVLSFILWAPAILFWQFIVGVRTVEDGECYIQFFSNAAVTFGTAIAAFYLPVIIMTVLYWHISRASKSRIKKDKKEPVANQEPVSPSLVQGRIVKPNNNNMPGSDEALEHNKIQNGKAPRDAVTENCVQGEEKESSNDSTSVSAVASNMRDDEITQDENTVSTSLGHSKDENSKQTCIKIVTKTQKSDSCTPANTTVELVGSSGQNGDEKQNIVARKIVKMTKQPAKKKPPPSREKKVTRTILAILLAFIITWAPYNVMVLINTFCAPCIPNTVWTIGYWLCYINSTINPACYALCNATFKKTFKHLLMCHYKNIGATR
# Kir3.2 E236D = target: T2, Kir3.2 E236D (Mus musculus, UniProt P48542, E236D); test: as above; format: cell-based; details: Kir3.2 E236D with porcine m2R in Xenopus oocytes; −120 mV; Hill equation fit
# T2 sequence (P48542 19-425 E236D): T1 sequence (P48542 19-425 E236Q) with Q218D
# T2 sequence (P06199 1-466 partner): T1 sequence (P06199 1-466 partner)
smiles,measurement,setting,value
"CC(=O)OCC[N+](C)(C)C [ACh, acetylcholine]",Hill coefficient,Kir3.2 E236Q,0.75 ± 0.02
same,Hill coefficient,Kir3.2 E236D,0.74 ± 0.07
